Reference: patent publication EP3002287B1, “Thiochromeno[2,3-c]quinolin-12-one derivatives and their use as topoisomerase inhibitors” (National Defense Medical Center, priority 2014, dated 2016)

Experiments:
HCT-116 = test: NCI in vitro 60-cell drug screen (SRB assay); type: cell-based; conditions: HCT-116 (Colon cancer); 10^-5 molar concentration; 48 hours
MDA-MB-231/ATCC = test: NCI in vitro 60-cell drug screen (SRB assay); type: cell-based; conditions: MDA-MB-231/ATCC (Breast cancer); 10^-5 molar concentration; 48 hours
NCI-H226 = test: NCI in vitro 60-cell drug screen (SRB assay); type: cell-based; conditions: NCI-H226 (Non-small cell lung cancer); 10^-5 molar concentration; 48 hours
A498 = test: NCI in vitro 60-cell drug screen (SRB assay); type: cell-based; conditions: A498 (Renal cancer); 10^-5 molar concentration; 48 hours
KM12 = test: NCI in vitro 60-cell drug screen (SRB assay); type: cell-based; conditions: KM12 (Colon cancer); 10^-5 molar concentration; 48 hours
SF-539 = test: NCI in vitro 60-cell drug screen (SRB assay); type: cell-based; conditions: SF-539 (CNS cancer); 10^-5 molar concentration; 48 hours
SR = test: NCI in vitro 60-cell drug screen (SRB assay); type: cell-based; conditions: SR (Leukemia); 10^-5 molar concentration; 48 hours
SN12C = test: NCI in vitro 60-cell drug screen (SRB assay); type: cell-based; conditions: SN12C (Renal cancer); 10^-5 molar concentration; 48 hours
TK-10 = test: NCI in vitro 60-cell drug screen (SRB assay); type: cell-based; conditions: TK-10 (Renal cancer); 10^-5 molar concentration; 48 hours
SF-295 = test: NCI in vitro 60-cell drug screen (SRB assay); type: cell-based; conditions: SF-295 (CNS cancer); 10^-5 molar concentration; 48 hours
HT29 = test: NCI in vitro 60-cell drug screen (SRB assay); type: cell-based; conditions: HT29 (Colon cancer); 10^-5 molar concentration; 48 hours
SK-OV-3 = test: NCI in vitro 60-cell drug screen (SRB assay); type: cell-based; conditions: SK-OV-3 (Ovarian cancer); 10^-5 molar concentration; 48 hours
MDA-MB-486 = test: NCI in vitro 60-cell drug screen (SRB assay); type: cell-based; conditions: MDA-MB-486 (Breast cancer); 10^-5 molar concentration; 48 hours
BT-549 = test: NCI in vitro 60-cell drug screen (SRB assay); type: cell-based; conditions: BT-549 (Breast cancer); 10^-5 molar concentration; 48 hours
A549/ATCC = test: NCI in vitro 60-cell drug screen (SRB assay); type: cell-based; conditions: A549/ATCC (Non-small cell lung cancer); 10^-5 molar concentration; 48 hours
HL-60(TB) = test: NCI in vitro 60-cell drug screen (SRB assay); type: cell-based; conditions: HL-60(TB) (Leukemia); 10^-5 molar concentration; 48 hours
DU-145 [1] = test: NCI in vitro 60-cell drug screen (SRB assay); type: cell-based; conditions: DU-145 (Prostate cancer); 10^-5 molar concentration; 48 hours
CCRF-CEM = test: NCI in vitro 60-cell drug screen (SRB assay); type: cell-based; conditions: CCRF-CEM (Leukemia); 10^-5 molar concentration; 48 hours
MDA-MB-435 = test: NCI in vitro 60-cell drug screen (SRB assay); type: cell-based; conditions: MDA-MB-435 (Melanoma); 10^-5 molar concentration; 48 hours
PC-3 = test: MTT assay for cell cytotoxicity; type: cell-based, human; conditions: Homo sapiens, 72 h, at least three independent experiments, read-out: MTT assay (IC50 ± SD) PC-3
Procedure: (§1) All of synthesis compounds were evaluated cell cytotoxicity by using MTT colorimetric assay on PC-3 and DU-145 cell lines. DU-145 and PC-3 are human hormone-refractory (androgen-independent) prostatic cancer cell lines from American Type Culture Collection (HTB-81™, ATCC, Rockville, MD)^125 and Bioresource Collection and Research Center (60122, BCRC, Taiwan)^126, respectively. Two of the "classical" cell lines were cultivated in RPMI-1640 medium supplemented with 5% fetal bovine serum (v/v), 100 U/mL penicillin, and […] streptomycin. Approximately 2 x 10^3 cells were seeded into each well of a 96-well plate and incubated in 5% CO2 at 37 °C for 24 h. To evaluate the in vitro cytotoxicity, all the synthetic compounds were dissolved in DMSO, prepared immediately before the experiments and diluted into the complete medium before being added to each well of a 96-well plate. Each compound was then added to the culture medium for designated various concentrations (0.15, 0.5, 1.5, 5, 15 µM). After 72 h, an amount of 100 µL of MTT (1 mg/mL) was added to each well, and the samples were incubated at 37 °C for 4 h. After removing the MTT solution, 100 µL of DMSO was added to each well and incubated at 37 °C for another 20 mins. The absorbency at 560 nm was measured by using an ELISA reader.
(§2) Results are expressed as mean values of at least three independent experiments. The IC50 values of testing compounds were described in Table 1. Table1. Effects of 10-Chloro-12H-thiochromeno[2,3-c]quinolin -12-one derivatives on cytotoxicity by MTT assay.

DU-145 [2] = test: MTT assay for cell cytotoxicity; type: cell-based, human; conditions: Homo sapiens, 72 h, at least three independent experiments, read-out: MTT assay (IC50 ± SD) DU-145
Procedure: as §1, §2

IGROV1 = test: NCI in vitro 60-cell drug screen (SRB assay); type: cell-based; conditions: IGROV1 (Ovarian cancer); 10^-5 molar concentration; 48 hours
NCI-H322M = test: NCI in vitro 60-cell drug screen (SRB assay); type: cell-based; conditions: NCI-H322M (Non-small cell lung cancer); 10^-5 molar concentration; 48 hours
CAKI-1 = test: NCI in vitro 60-cell drug screen (SRB assay); type: cell-based; conditions: CAKI-1 (Renal cancer); 10^-5 molar concentration; 48 hours
OVCAR-4 = test: NCI in vitro 60-cell drug screen (SRB assay); type: cell-based; conditions: OVCAR-4 (Ovarian cancer); 10^-5 molar concentration; 48 hours

Compound | Growth percent (HCT-116) | Growth percent (MDA-MB-231/ATCC) | Growth percent (NCI-H226) | Growth percent (A498) | Growth percent (KM12) | Growth percent (SF-539) | Growth percent (SR) | Growth percent (SN12C) | Growth percent (TK-10) | Growth percent (SF-295) | Growth percent (HT29) | Growth percent (SK-OV-3) | Growth percent (MDA-MB-486) | Growth percent (BT-549) | Growth percent (A549/ATCC) | Growth percent (HL-60(TB)) | Growth percent (DU-145 [1]) | Growth percent (CCRF-CEM) | Growth percent (MDA-MB-435) | IC50 (PC-3) | also measured
O=c1c2cc(Cl)ccc2sc2c(O)nc3ccccc3c12 [Compound 4, 10-Chloro-6-hydroxy-12H-thiochromeno[2,3-c]quinolin-12-one] | 86.20% | 81.80% | 99.58% | 107.74% | 102.45% | 93.21% | 96.00% | 101.14% | 113.26% | 99.93% | 96.78% | 94.40% | 100.33% | 85.17% | 95.25% | 109.82% | 99.80% | 107.78% | 103.18% | 10.1 ± 1.81 µM | IC50 (DU-145 [2]): > 15 µM; Growth percent (IGROV1): 78.35%; Growth percent (NCI-H322M): 90.87%
O=c1c2cc(Cl)ccc2sc2c(N3CCOCC3)nc3ccccc3c12 [Compound 13, 10-Chloro-6-morpholino-12H-thiochromeno[2,3-c]quinolin-12-one] | 85.71% | 71.53% | 88.01% | 94.15% | 88.68% | 82.38% | 88.91% | 96.81% | 86.24% | 93.62% | 83.73% | 77.18% | 39.67% | 113.81% | 92.97% | 93.38% | 110.81% | 88.02% | 102.07% | > 15 µM | Growth percent (CAKI-1): 90.00%; Growth percent (OVCAR-4): 96.75%; IC50 (DU-145 [2]): > 15 µM; Growth percent (IGROV1): 80.90%; Growth percent (NCI-H322M): 88.41%
O=c1c2cc(Cl)ccc2sc2c(N3CCN(CCO)CC3)nc3ccccc3c12 [Compound 10, 10-Chloro-6-(4-(2-hydroxyethyl)piperazin-1-yl)-12H-thiochrom eno[2,3-c]quinolin-12one] | 69.33% | 55.49% | 89.29% | 62.20% | 101.86% | 86.18% | 79.07% | 86.81% | 93.19% | 100.32% | 63.19% | 95.12% | 81.67% | 90.05% | 95.49% | 93.81% | 96.26% | 83.46% | 98.24% | > 15 µM | Growth percent (CAKI-1): 87.87%; Growth percent (OVCAR-4): 85.35%; IC50 (DU-145 [2]): > 15 µM; Growth percent (IGROV1): 71.67%; Growth percent (NCI-H322M): 82.85%
CN(C)c1nc2ccccc2c2c(=O)c3cc(Cl)ccc3sc12 [Compound 6, 10-Chloro-6-dimethylamino-12H-thiochromeno[2,3-c]quinolin-12-one] | 74.26% | 71.03% | 96.20% | 97.06% | 96.40% | 72.72% | 95.68% | 99.49% | 64.75% | 48.82% | 87.73% | 41.57% | 29.91% | 92.96% | 94.16% | 107.16% | 92.93% | 99.42% | 107.18% | > 15 µM | IC50 (DU-145 [2]): > 15 µM; Growth percent (IGROV1): 68.16%; Growth percent (NCI-H322M): 83.74%
O=c1c2cc(Cl)ccc2sc2c(N3CCN(Cc4ccccc4)CC3)nc3ccccc3c12 [Compound 11, 6-(4-Benzylpiperazin-1-yl)-10-chloro-12H-thiochromeno[2,3-c]q uinolin-12-one] | 98.59% | 89.11% | 88.98% | 94.17% | 107.75% | 108.56% | 85.15% | 97.70% | 124.99% | 94.34% | 102.71% | 94.79% | 98.53% | 114.05% | 106.37% | 100.96% | 111.61% | 95.42% | 96.99% | > 15 µM | Growth percent (CAKI-1): 94.03%; Growth percent (OVCAR-4): 102.43%; IC50 (DU-145 [2]): > 15 µM; Growth percent (IGROV1): 93.49%; Growth percent (NCI-H322M): 88.92%
COc1nc2ccccc2c2c(=O)c3cc(Cl)ccc3sc12 [Compound 5, 10-Chloro-6-methoxy-12H-thiochromeno[2,3-c]quinolin-12-one] | 89.48% | 78.12% | 98.57% | 96.29% | 98.03% | 86.13% | 88.18% | 98.74% | 113.30% | 86.35% | 102.69% | 58.94% | 103.54% | 94.85% | 100.46% | 89.47% | 104.27% | 106.56% | 103.83% | 3.89 ± 0.54 µM | IC50 (DU-145 [2]): 10.8 ± 6.55 µM; Growth percent (IGROV1): 71.44%; Growth percent (NCI-H322M): 90.77%
